PubChem BioAssay AID1919003 (Molecular Pharmacology Branch, DTP, NCI, 2023)

Tested on: 786-0 complex spheroids with HUVEC/MSC, growth % test/control
Test: Anticancer human tumor 786-0 cell line growth inhibition [AhR];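 note: compound exposure lasted seven days before the read-out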
Details: for IC50: curve of first compound; for viability, T/C: stronger effect = lower value
Procedure, shortened: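 Agents were dosed in half-log steps down from roughly clinical Cmax, or from 10 microM where Cmax was unknown, alone and with AhR antagonists. Read-out: percent test/control growth of tumor spheroids containing HUVEC and MSC stromal cells.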

[1] = second compound 0.1 µM, first compound 0.000949 µM
[2] = second compound 0.1 µM, first compound 0.003 µM
[3] = second compound 0.1 µM, first compound 0.00949 µM
[4] = second compound 0.1 µM, first compound 0.03 µM
[5] = second compound 0.1 µM, first compound 0.0949 µM
[6] = second compound 0.1 µM, first compound 0.3 µM
[7] = second compound 0.316 µM, first compound 0.000949 µM
[8] = second compound 0.316 µM, first compound 0.003 µM
[9] = second compound 0.316 µM, first compound 0.00949 µM
[10] = second compound 0.316 µM, first compound 0.03 µM
[11] = second compound 0.316 µM, first compound 0.0949 µM
[12] = second compound 0.316 µM, first compound 0.3 µM
[13] = second compound 1 µM, first compound 0.000949 µM
[14] = second compound 1 µM, first compound 0.003 µM
[15] = second compound 1 µM, first compound 0.00949 µM
[16] = second compound 1 µM, first compound 0.03 µM
[17] = second compound 1 µM, first compound 0.0949 µM
[18] = second compound 1 µM, first compound 0.3 µM
[19] = second compound 3.16 µM, first compound 0.000949 µM
[20] = second compound 3.16 µM, first compound 0.003 µM
[21] = second compound 3.16 µM, first compound 0.00949 µM
[22] = second compound 3.16 µM, first compound 0.03 µM
[23] = second compound 3.16 µM, first compound 0.0949 µM
[24] = second compound 3.16 µM, first compound 0.3 µM
[25] = second compound 10 µM, first compound 0.000949 µM
[26] = second compound 10 µM, first compound 0.003 µM
[27] = second compound 10 µM, first compound 0.00949 µM
[28] = second compound 10 µM, first compound 0.03 µM
[29] = second compound 10 µM, first compound 0.0949 µM
[30] = second compound 10 µM, first compound 0.3 µM

Q: Which results are given for CC(C)CC(NC(=O)C(Cc1ccccc1)NC(=O)c1cnccn1)B(O)O (stereo not given) + Cc1cncc(-c2nc(NCCc3c[nH]c4ccccc34)c3ncn(C(C)C)c3n2)c1?
A: IC50 (second compound 0.1 µM): 17.8 nM; IC50 (second compound 0.316 µM): 18.6 nM; IC50 (second compound 1 µM): 17 nM; IC50 (second compound 3.16 µM): 8.46 nM; IC50 (second compound 10 µM): < 0.949 nM; viability, T/C [1]: 136%; viability, T/C [2]: 119%; viability, T/C [3]: 103%; viability, T/C [4]: 5.33%; viability, T/C [5]: 0.52%; viability, T/C [6]: 0.46%; viability, T/C [7]: 127%; viability, T/C [8]: 120%; viability, T/C [9]: 118%; viability, T/C [10]: 3.15%; viability, T/C [11]: 0.85%; viability, T/C [12]: 0.37%; viability, T/C [13]: 102%; viability, T/C [14]: 110%; viability, T/C [15]: 96.9%; viability, T/C [16]: 4.16%; viability, T/C [17]: 0.6%; viability, T/C [18]: 0.7%; viability, T/C [19]: 70.7%; viability, T/C [20]: 69.3%; viability, T/C [21]: 47.8%; viability, T/C [22]: 1.63%; viability, T/C [23]: 0.28%; viability, T/C [24]: 0.43%; viability, T/C [25]: 10.2%; viability, T/C [26]: 16%; viability, T/C [27]: 2.59%; viability, T/C [28]: 0.18%; viability, T/C [29]: 0.17%; viability, T/C [30]: 0.24%

Q: For CCc1c2c(nc3ccc(O)cc13)-c1cc3c(c(=O)n1C2)COC(=O)[C@]3(O)CC + Cc1cncc(-c2nc(NCCc3c[nH]c4ccccc34)c3ncn(C(C)C)c3n2)c1, which IC50 (second compound 0.1 µM) is on record?
A: 6.02 nM

Q: And the IC50 (second compound 0.316 µM)?
A: 6.06 nM

Q: And the IC50 (second compound 1 µM)?
A: 5.1 nM

Q: What about the IC50 (second compound 3.16 µM) of the same molecule?
A: 1.52 nM

Q: What about the IC50 (second compound 10 µM) of the same molecule?
A: < 0.949 nM

Q: What about the viability, T/C [1] of the same molecule?
A: 106%

Q: What about the viability, T/C [2] of the same molecule?
A: 93.5%

Q: And the viability, T/C [3]?
A: 21.5%

Q: And the viability, T/C [4]?
A: 5.21%

Q: And the viability, T/C [5]?
A: 2.42%

Q: What about the viability, T/C [6] of the same molecule?
A: 2.24%

Q: What about the viability, T/C [7] of the same molecule?
A: 112%

Q: And the viability, T/C [8]?
A: 95.4%

Q: And the viability, T/C [9]?
A: 21%

Q: What about the viability, T/C [10] of the same molecule?
A: 6.67%

Q: What about the viability, T/C [11] of the same molecule?
A: 3.31%

Q: What about the viability, T/C [12] of the same molecule?
A: 2.09%

Q: What about the viability, T/C [13] of the same molecule?
A: 99.5%

Q: What about the viability, T/C [14] of the same molecule?
A: 79.5%

Q: And the viability, T/C [15]?
A: 15.4%

Q: And the viability, T/C [16]?
A: 5.63%

Q: And the viability, T/C [17]?
A: 2.53%

Q: And the viability, T/C [18]?
A: 3.71%

Q: And the viability, T/C [19]?
A: 65.7%

Q: What about the viability, T/C [20] of the same molecule?
A: 27.2%

Q: And the viability, T/C [21]?
A: 4.92%

Q: What about the viability, T/C [22] of the same molecule?
A: 2.43%

Q: And the viability, T/C [23]?
A: 1.6%

Q: And the viability, T/C [24]?
A: 1.37%

Q: What about the viability, T/C [25] of the same molecule?
A: 1.65%

Q: And the viability, T/C [26]?
A: 0.61%

Q: And the viability, T/C [27]?
A: 0.43%

Q: What about the viability, T/C [28] of the same molecule?
A: 0.38%

Q: What about the viability, T/C [29] of the same molecule?
A: 0.28%

Q: What about the viability, T/C [30] of the same molecule?
A: 0.36%

Q: COc1cc(Nc2ncc3c(n2)-c2ccc(Cl)cc2C(c2c(F)cccc2OC)=NC3)ccc1C(=O)O + Cc1cncc(-c2nc(NCCc3c[nH]c4ccccc34)c3ncn(C(C)C)c3n2)c1 was tested. Which IC50 (second compound 0.1 µM) did it give?
A: 6870 nM

Q: What about the IC50 (second compound 0.316 µM) of the same molecule?
A: 6370 nM

Q: And the IC50 (second compound 1 µM)?
A: 6550 nM

Q: What about the IC50 (second compound 3.16 µM) of the same molecule?
A: 7760 nM

Q: What about the IC50 (second compound 10 µM) of the same molecule?
A: < 31.6 nM

Q: And the viability, T/C (second compound 0.1 µM, first compound 0.0316 µM)?
A: 115%

Q: What about the viability, T/C (second compound 0.1 µM, first compound 0.1 µM) of the same molecule?
A: 115%

Q: What about the viability, T/C (second compound 0.1 µM, first compound 0.316 µM) of the same molecule?
A: 155%

Q: And the viability, T/C (second compound 0.1 µM, first compound 1 µM)?
A: 104%

Q: And the viability, T/C (second compound 0.1 µM, first compound 3.16 µM)?
A: 75.5%

Q: And the viability, T/C (second compound 0.1 µM, first compound 10 µM)?
A: 38.2%

Q: And the viability, T/C (second compound 0.316 µM, first compound 0.0316 µM)?
A: 121%

Q: And the viability, T/C (second compound 0.316 µM, first compound 0.1 µM)?
A: 121%

Q: And the viability, T/C (second compound 0.316 µM, first compound 0.316 µM)?
A: 144%

Q: What about the viability, T/C (second compound 0.316 µM, first compound 1 µM) of the same molecule?
A: 123%

Q: What about the viability, T/C (second compound 0.316 µM, first compound 3.16 µM) of the same molecule?
A: 69%

Q: And the viability, T/C (second compound 0.316 µM, first compound 10 µM)?
A: 37.8%

Q: What about the viability, T/C (second compound 1 µM, first compound 0.0316 µM) of the same molecule?
A: 115%

Q: And the viability, T/C (second compound 1 µM, first compound 0.1 µM)?
A: 125%

Q: And the viability, T/C (second compound 1 µM, first compound 0.316 µM)?
A: 152%

Q: And the viability, T/C (second compound 1 µM, first compound 1 µM)?
A: 114%

Q: What about the viability, T/C (second compound 1 µM, first compound 3.16 µM) of the same molecule?
A: 71.2%

Q: What about the viability, T/C (second compound 1 µM, first compound 10 µM) of the same molecule?
A: 37.9%

Q: And the viability, T/C (second compound 3.16 µM, first compound 0.0316 µM)?
A: 63.3%

Q: What about the viability, T/C (second compound 3.16 µM, first compound 0.1 µM) of the same molecule?
A: 68.3%

Q: What about the viability, T/C (second compound 3.16 µM, first compound 0.316 µM) of the same molecule?
A: 94.2%

Q: And the viability, T/C (second compound 3.16 µM, first compound 1 µM)?
A: 92.3%

Q: And the viability, T/C (second compound 3.16 µM, first compound 3.16 µM)?
A: 70.1%

Q: And the viability, T/C (second compound 3.16 µM, first compound 10 µM)?
A: 44.4%

Q: What about the viability, T/C (second compound 10 µM, first compound 0.0316 µM) of the same molecule?
A: 4.3%

Q: What about the viability, T/C (second compound 10 µM, first compound 0.1 µM) of the same molecule?
A: 1.69%

Q: And the viability, T/C (second compound 10 µM, first compound 0.316 µM)?
A: 2.04%

Q: And the viability, T/C (second compound 10 µM, first compound 1 µM)?
A: 3.84%

Q: And the viability, T/C (second compound 10 µM, first compound 3.16 µM)?
A: 4.27%

Q: What about the viability, T/C (second compound 10 µM, first compound 10 µM) of the same molecule?
A: 16.9%
